# Measured values: publication PMC11190219 (2024)
# What was measured:
# [1] = tested on: c-MYC22 (NMR) (DNA, G4) TGAGGGTGGGTAGGGTGGGTAA; test: 1D 1H NMR titration; settings: K+ 100 mM; 25 mM Tris-HCl, pH 7.4, 100 µM DNA, 5-7.5% d6-DMSO
# [2] = tested on: FAM-c-KIT1-TAMRA (DNA, G4) GGGAGGGCGCTGGGAGGAGGG; test: FRET melting; settings: K+ 60 mM (potassium cacodylate); pH 7.4, 2 µM compound, 0.2 µM DNA
# [3] = tested on: BCL-2 (DNA, G4) GGGCGCGGGAGGAATTGGGCGGG; test: fluorescence titration (ligand emission); settings: K+ 60 mM (potassium cacodylate); pH 7.4, room temperature, 2.5 µM TBP2, Hill-1 fit, apparent
# [4] = tested on: FAM-c-KIT2-TAMRA (DNA, G4) GGGCGGGCGCTAGGGAGGGG; test: FRET melting; settings: K+ 60 mM (potassium cacodylate); pH 7.4, 2 µM compound, 0.2 µM DNA
# [5] = tested on: c-KIT2 (DNA, G4) GGGCGGGCGCTAGGGAGGGG; test: fluorescence titration (ligand emission); settings: K+ 60 mM (potassium cacodylate); pH 7.4, room temperature, 2.5 µM TBP2, Hill-1 fit, apparent
# [6] = tested on: c-KIT1 (DNA, G4) GGGAGGGCGCTGGGAGGAGGG; test: fluorescence titration (ligand emission); settings: K+ 60 mM (potassium cacodylate); pH 7.4, room temperature, 2.5 µM TBP2, Hill-1 fit, apparent
# [7] = tested on: FAM-BCL-2-TAMRA (DNA, G4) GGGCGCGGGAGGAATTGGGCGGG; test: FRET melting; settings: K+ 60 mM (potassium cacodylate); pH 7.4, 2 µM compound, 0.2 µM DNA
# [8] = tested on: h-TELO (DNA, G4) TTGGGTTAGGGTTAGGGATTAGGGA; test: fluorescence titration (ligand emission); settings: K+ 60 mM (potassium cacodylate); pH 7.4, room temperature, 2.5 µM TBP2, Hill-1 fit, apparent
SMILES,binding [1],ΔTM [2] [°C],Kd [3] [µM],ΔTM [4] [°C],Kd [5] [µM],Kd [6] [µM],ΔTM [7] [°C],Kd [8] [µM]
CN(C)CCCNC(=O)c1csc(NC(=O)c2csc(NC(=O)CCCc3cn(CCNC(=O)c4csc(NC(=O)c5csc(N)n5)n4)nn3)n2)n1,yes,1.3 ± 0.1,10.2,4.1 ± 0.2,9.2,9.5,3.8 ± 0.2,8.2
CN(C)CCCNC(=O)c1csc(NC(=O)c2csc(NC(=O)CCCc3cn(CCNC(=O)c4csc(NC(=O)c5csc(NC(=O)OC(C)(C)C)n5)n4)nn3)n2)n1,,0,,0.5 ± 0,,,1 ± 0,
